Values quoted from earlier work in US20160184332A1, “MEDICAMENT COMPRISING A PHARMACEUTICAL COMBINATION OF DRUGS” (priority 2013, published 2016).

Experiments:
[1] = biological target: CYP3A4 (Homo sapiens, UniProt P08684); conditions: minor route; primary route of metabolism is glucuronidation
[2] = system: cytochrome P450 (CYP) isozymes; conditions: in vitro
[3] = system: human CYP 450 isoenzymes: 1A2, 2A6, 2B6, 2C9, 2C19, 2D6 and 3A4
[4] = system: uridine-5-5′-diphosphoglucuronyl transferase; conditions: enzyme responsible for glucuronidation

Chain of CYP3A4 (P08684 whole entry): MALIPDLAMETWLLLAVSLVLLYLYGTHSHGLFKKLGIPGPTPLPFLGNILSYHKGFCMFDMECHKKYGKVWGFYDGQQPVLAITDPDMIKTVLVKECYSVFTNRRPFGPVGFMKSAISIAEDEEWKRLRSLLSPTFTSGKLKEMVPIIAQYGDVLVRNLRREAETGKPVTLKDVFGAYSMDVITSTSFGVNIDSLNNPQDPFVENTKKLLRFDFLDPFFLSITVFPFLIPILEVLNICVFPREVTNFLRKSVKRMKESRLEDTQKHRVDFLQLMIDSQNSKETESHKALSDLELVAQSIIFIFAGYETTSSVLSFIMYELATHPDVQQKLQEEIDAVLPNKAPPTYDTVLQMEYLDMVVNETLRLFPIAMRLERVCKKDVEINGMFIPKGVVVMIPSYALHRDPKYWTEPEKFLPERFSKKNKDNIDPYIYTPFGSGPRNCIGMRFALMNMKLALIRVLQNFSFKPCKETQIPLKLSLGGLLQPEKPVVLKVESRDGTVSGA

| extent to which it is a substrate of CYP3A4 [1] | induction or inhibition of cytochrome P450 (CYP) isozymes [2] | inhibition of in vitro drug metabolism mediated by human CYP 450 isoenzymes [3] | inhibition of uridine-5-5′-diphosphoglucuronyl transferase [4] | Structure (SMILES) |
| --- | --- | --- | --- | --- |
| about 15% | demonstrates induction or inhibition | – | – | C[C@@H]1CCO[C@H]2Cn3cc(C(=O)NCc4ccc(F)cc4F)c(=O)c(O)c3C(=O)N12 [dolutegravir, (4R,12aS)—N-(2,4-difluorobenzyl)-7-hydroxy-4-methyl-6,8-dioxo-3,4,6,8,12,12a-hexa-hydro-2H-pyrido[1′,2′:4,5]pyrazino[2,1-b][1,3]oxazine-9-carboxamide] |
| – | – | does not inhibit | does not inhibit | Nc1nc(=O)n([C@@H]2CS[C@H](CO)O2)cc1F [emtricitabine, 5-fluoro-1-(2R,5S)-[2-(hydroxymethyl)-1,3 oxathiolan-5-yl]cytosine] |
